According to US20220008563A1, “RADIOLABELLED AND NONRADIOLABELLED PEGYLATED COMPOUNDS AND USES THEREOF” (The Regents of the University of California, priority 2020, published 2022):
pKi: −log10 of the molar value.

Columns and labels:
MAO-A = target: T1, MAO-A (Homo sapiens, UniProt P21397); assay: Effect of drugs on the binding of [^18F]FAZIN3 in postmortem human brain sections; conditions: for selectivity of binding for MAO-A versus MAO-B: by use of clorgyline (MAO-A inhibitor) and deprenyl (MAO-B inhibitor)
T1 construct: tissue Banner Sun Health Research Institute; host or cells: postmortem human anterior cingulate / corpus callosum sections (CN, AD, PD subjects)
T1 sequence (P21397 1-527): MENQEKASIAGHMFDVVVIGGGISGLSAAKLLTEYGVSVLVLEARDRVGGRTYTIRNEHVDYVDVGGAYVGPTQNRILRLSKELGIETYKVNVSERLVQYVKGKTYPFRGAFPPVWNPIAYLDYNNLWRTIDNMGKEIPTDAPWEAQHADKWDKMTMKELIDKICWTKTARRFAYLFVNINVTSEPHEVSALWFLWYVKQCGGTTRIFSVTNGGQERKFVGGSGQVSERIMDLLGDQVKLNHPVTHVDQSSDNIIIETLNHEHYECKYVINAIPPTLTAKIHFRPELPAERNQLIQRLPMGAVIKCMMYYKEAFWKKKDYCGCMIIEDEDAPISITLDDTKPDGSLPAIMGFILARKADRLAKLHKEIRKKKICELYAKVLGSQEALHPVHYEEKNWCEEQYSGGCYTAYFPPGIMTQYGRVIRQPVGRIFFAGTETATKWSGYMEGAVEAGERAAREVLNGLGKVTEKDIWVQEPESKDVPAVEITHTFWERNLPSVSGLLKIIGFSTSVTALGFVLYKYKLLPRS
Procedure: MK-6240 (10 μM) was used since it is known to bind to Tau. […] The slides containing the sections (10 μm thick) were preincubated in PBS buffer for 15 minutes in eight different slide chambers (one total binding and seven with the different drugs). The preincubation PBS buffer was discarded and appropriate amount of each drug (dissolved in ethanol) was added to the chambers with the slides. […] The chambers were incubated at 25° C. for 1.25 h. The slides were then washed with cold PBS buffer twice, and cold water, respectively. The slides with the brain sections were air dried, exposed overnight on a phosphor film, and then placed on the Phosphor Autoradiographic Imaging System/Cyclone Storage Phosphor System (Packard Instruments Co).

Aβ plaques [1] = assay: Postmortem human brain autoradiography of [^18F]Flotaza in AD subjects; assay type: binding
Excerpt: Postmortem human brain autoradiography [^18F]Flotaza in AD subjects. Well characterized brain samples were obtained from Banner Health Research Institute. Brain slices from six AD subjects included anterior cingulate (gray matter, GM) and corpus callosum (white matter, WM) as shown for one subject in FIG. 24A. The AD brain sections of the six AD subjects were further confirmed to contain Aβ plaques in the GM regions by immunostaining with anti-Aβ Biolegend (known to stain Aβ1-16) as shown in FIG. 24B.
It must be noted that in these experiments, after [^18F]Flotaza binding, the slices were washed with 50% alcohol in PBS buffer.

Aβ plaques [2] = conditions: hippocampal AD brain sections; cited from earlier work
Tau protein [3] = target: Tau protein (Homo sapiens, UniProt P10636); assay: In vitro binding in human AD brain slices using [^125I]IPPI; conditions: [^125I]IPPI labeled human AD brain slices
Procedure: Assessing the binding specificity of Flotaza. In vitro binding affinity of Flotaza in human AD brain slices using [^3H]PIB for Aβ plaques and [^125I]IPPI for Tau were carried out. […] Thus, Flotaza is a selective Aβ plaque agent.

human Aβ plaques = human Aβ plaques (Homo sapiens, UniProt P05067); assay: In vitro binding affinity in human AD brain slices using [^3H]PIB; conditions: human AD brain slices (anterior cingulate, corpus callosum)
Procedure: Analytical thin-layer chromatography (TLC) was used to monitor reactions (Baker-flex, Phillipsburg, N.J., USA). RadioTLC were scanned on an AR-2000 imaging scanner (Eckart & Ziegler, Berlin, Germany). Electrospray mass spectra were obtained from a Model 7250 mass spectrometer (Micromass LCT). Proton NMR spectra were recorded on a Bruker OM EGA 500-MHz spectrometer. Tritium was assayed by using a Packard Tri-Carb Liquid scintillation counter with 65% efficiency. Human postmortem brain tissue samples were obtained from Banner Sun Health Research Institute, Sun City, Ariz. brain tissue repository for in vitro experiments. Age and gender matched AD brain and cognitively normal (CN) brain tissue samples selected for end-stage pathology (Braak & Braak stage of VI; Braak and Braak 1991). Human postmortem brain slices were obtained from chunks of frozen tissue on a Leica 1850 cryotome cooled to −20° C. Tritium and iodine-125, and fluorine-18 autoradiographic studies were carried out by exposing tissue samples on storage phosphor screens (Perkin Elmer Multisensitive, Medium MS and tritium sensitive phosphor screens). The apposed phosphor screens were read and analyzed by OptiQuant acquisition and analysis program of the Cyclone Storage Phosphor System (Packard Instruments Co., Boston, Mass.). […]

Aβ plaques [4] = assay: ^125I-IAZA brain autoradiography in postmortem human AD brain; assay type: binding; conditions: anterior cingulate
Excerpt: FIG. 22A-F provides the results of brain autoradiography in postmortem human brain from an Alzheimer patient using ^125I-IAZA and ^124I-IAZA. (A) AD brain slice showing gray matter (GM), anterior cingulate and white matter (WM) corpus callosum. […] (D) AD brain cortex slice showing gray matter on the left edges. (E)-(F) ^125I-IAZA binding in the outer regions containing gray matter which is consistent with Tau buildup.

Tau protein [5] = assay: [^125I]IPPI / [^124I]IPPI autoradiography of postmortem AD brain slices; assay type: binding, human
Procedure: FIG. 18A-H: provides the results of [^125I]IPPI competitive binding assay with various inhibitors. (A) Postmortem human brain 10 μm thick sections (from two AD subjects, 11-107 and 11-38) of anterior cingulate (AC) grey matter (arrows showing GM) and corpus callosum (CC) white matter (WM). (B) [^125I]IPPI binding to grey matter, AC with low nonspecific binding in white matter, CC. […] (E) BrPPI, 10 μM effect on [^125I ]IPPI binding. (F) MK-6240, 10μM effect on [^125I]IPPI binding. (G) Immunostaining of 11-38 with Dako A0024 for total Tau; (i) picture of entire slice and (ii) magnification (x10) of box in (i). (H) Plot comparing GM and WM in the two AD subjects with different drugs.

Tau protein (Homo sapiens, UniProt P10636), sequence (P10636 with tags, fused parts or gaps): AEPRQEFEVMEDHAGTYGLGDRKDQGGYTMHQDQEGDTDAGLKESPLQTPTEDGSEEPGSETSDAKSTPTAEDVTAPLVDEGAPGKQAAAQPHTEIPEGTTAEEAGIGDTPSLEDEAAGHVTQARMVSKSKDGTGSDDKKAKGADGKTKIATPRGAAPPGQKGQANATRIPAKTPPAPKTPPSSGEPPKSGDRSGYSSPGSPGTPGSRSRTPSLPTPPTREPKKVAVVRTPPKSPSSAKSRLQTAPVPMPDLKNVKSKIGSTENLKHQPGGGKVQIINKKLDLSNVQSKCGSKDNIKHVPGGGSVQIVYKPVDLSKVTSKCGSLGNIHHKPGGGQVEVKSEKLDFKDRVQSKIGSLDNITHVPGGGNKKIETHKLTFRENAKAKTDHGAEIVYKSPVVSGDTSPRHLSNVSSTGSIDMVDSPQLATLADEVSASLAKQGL
human Aβ plaques, sequence (P05067 672-713): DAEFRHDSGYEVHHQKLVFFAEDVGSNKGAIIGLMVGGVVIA

FCCOCCOCCOc1ccnc(-n2ccc3ccncc32)c1 [FAZIN3, 4-O-FluoroPEG3-2-(1H-pyrrolo[2,3-c]pyridine-1-yl)pyridine]
selectivity of binding for MAO-A versus MAO-B (MAO-A): selectively bound to MAO-A

Nc1c(F)ccc2cnc(-n3ccc4ccncc43)cc12 [MK-6240, reference compound]
displacement (inhibition) of [^18F]FAZIN3 binding (MAO-A; drug 10 μM, human brain sections): did not have much effect

CNc1ccc(-c2nc3ccc(O)cc3s2)cc1 [PIB, reference compound]
effect on grey matter binding of [^18F]Flotaza (Aβ plaques [1]; AD brain sections treated with the drug): significantly reduced

[11CH3]Nc1ccc(-c2nc3ccc(O)cc3s2)cc1 [[^11C]PIB]
GM/WM ratios (Aβ plaques [2]): lower GM/WM ratios

CN(C)c1ccc(N=Nc2ccc(OCCOCCOCCF)cc2)cc1 [Flotaza]
effect on the binding of [^125I]IPPI (Tau protein [3]): did not have any significant effect

CNc1ccc(N=Nc2ccc(N(C)C)cc2)cc1 [TAZA]
pKi (human Aβ plaques): 9.27

CN(C)c1ccc(N=Nc2ccc([125I])cc2)cc1 [^125I-IAZA]
binding in gray matter of AD brain slices (Aβ plaques [4]): binding in the gray matter regions

CN(C)c1ccc(N=Nc2ccc(OCCOCCOCC[18F])cc2)cc1 [[^18F]Flotaza]
binding in the grey matter regions of AD subjects (Aβ plaques [1]; anterior cingulate, AD subjects): Extensive binding
ratio between gray matter and white matter binding (Aβ plaques [1]; six AD subjects, slices washed with 50% alcohol in PBS buffer): > 100

[125I]c1ccc2cnc(-n3ccc4ccncc43)cc2c1 [[^125I]IPPI, 6-[^125I]iodo-3-(1H-pyrrolo[2,3-c]pyridine-1-yl)isoquinoline]
sensitivity of binding to MAO inhibitors (Tau protein [5]; MAO inhibitors at <1 μM concentrations): resistance to MAO inhibitors
binding to Tau protein / neurofibrillary tangles in Alzheimer's disease brain grey matter (Tau protein [5]; postmortem AD brain slices): Excellent binding

4-O-[^18F]FluoroPEG3-2-(1H-pyrrolo[2,3-c]pyridine-1-yl)pyridine [[^18F]FAZIN3]
selectivity of binding for MAO-A versus MAO-B (MAO-A): selective MAO-A binding
